Reference: US5229398A, “Aminomethylpiperidine compounds” (Adir et Compagnie, priority 1990, dated 1993)
Structures can show the parent of a compound that is named as a salt. Where two headings read alike, the source gives them in different places.

How the values were obtained:
5-HT1A receptors [1] = target: T1, 5-HT1A receptors (Rattus norvegicus, UniProt P19327); assay: Affinity for 5-HT1A receptors in vitro ([3H]-8-OH-DPAT binding, rat hippocampus membranes); set-up: from tissue; host or cells: hippocampus membranes of male Wistar rats; species or system male Wistar rats
T1 sequence (P19327 1-422): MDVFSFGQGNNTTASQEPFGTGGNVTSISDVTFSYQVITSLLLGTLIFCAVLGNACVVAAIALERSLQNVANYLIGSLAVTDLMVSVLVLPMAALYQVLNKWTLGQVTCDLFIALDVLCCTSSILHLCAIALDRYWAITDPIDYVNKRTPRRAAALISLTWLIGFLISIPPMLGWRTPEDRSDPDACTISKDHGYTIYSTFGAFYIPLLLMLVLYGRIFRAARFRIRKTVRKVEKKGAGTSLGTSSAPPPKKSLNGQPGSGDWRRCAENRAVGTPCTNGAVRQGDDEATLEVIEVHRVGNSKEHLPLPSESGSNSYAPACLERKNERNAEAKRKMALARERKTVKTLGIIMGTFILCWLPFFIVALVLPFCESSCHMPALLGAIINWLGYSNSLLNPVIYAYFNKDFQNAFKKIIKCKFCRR
Description: The tests were carried out on tissue from the hippocampus of decapitated male Wistar rats. The rats were sacrificed 48 hours before the experiment and the isolated tissues were preserved at -86° C.
In order to prepare the membranes, the tissues were homogenized at 0° C. in 20 volumes of 50 mM Tris HCl buffer solution (pH 7.7, adjusted with 5N HCl at 25° C.), with a Polytron homogenizer for 6 seconds. The whole was then centrifuged (35,000 g for 20 minutes at 4° C.). Homogenization followed by centrifugation was repeated a second time under the same conditions. The pellet thus obtained was suspended for a final time in 20 volumes of the above buffer, incubated for 15 minutes at 37° C., then again centrifuged. […]
The compounds to be tested were put into solution in the incubation buffer. Test solutions were prepared by placing in 12×75 mm glass tubes, 10 μl of the solution of the compounds to be tested, 100 μl of a solution containing […] of [^3 H]-8-OH-DPAT (specific radioactivity 205 Ci/mmol). Non-specific binding was determined with the aid of a solution of 5-hydroxytryptamine (10 μM), and represented 5 to 10% of the final binding. […] Radioactivity was then determined with the aid of external standards.
The pKi values were determined by the CheungPrusoff equation: [formula]

5-HT1A receptors [2] = target: T1, 5-HT1A receptors; assay: In vivo test of "tail-flicks" (antagonism of 8-OH-DPAT-induced spontaneous tail movements); set-up: from tissue; host or cells: whole rat in vivo; settings: subcutaneous injection; for ED50: sc, against subcutaneous 8-OH-DPAT, read-out: ED50, the amount which reduces the action of 8-OH-DPAT by 50%
Description: The potential of the compounds of the invention to act in vivo on the 5-HT1A receptors was brought out following a method perfected by Millan et al. (Neurosci. Lett., 1989, 107, 227-232). […] This model then was used to evaluate the potential of the compounds of the invention administered by subcutaneous injection, to interact with the 5-HT1A receptors in the rat. The ED50, that is the amount which reduces the action of 8-OH-DPAT by 50%, was thus determined.

5-HT1A receptors [3] = target: T1, 5-HT1A receptors; set-up: The tests were carried out on tissue from the hippocampus of decapitated male Wistar rats; from tissue; host or cells: hippocampus membranes of male Wistar rats; settings: reference ligand 8-OH-DPAT; cited from earlier work
5-HT1A receptors [4] = target: T1, 5-HT1A receptors; set-up: from tissue; host or cells: whole rat in vivo; settings: subcutaneous injection; cited from earlier work

SMILES: COc1cccc2c1OC(CNCC1CCN(c3nc4ccccc4s3)CC1)CO2 (stereo not drawn) [Example 16, 1-(BENZOTHIAZOL-2-YL)-4-[(8-METHOXY-1,4-BENZODIOXAN-2-YL)-METHYLAMINOMETHYL]PIPERIDINE DIHYDROCHLORIDE]
- Ki (5-HT1A receptors [1]): 501 pM
- ED50 (5-HT1A receptors [2]): 0.31 mg/kg
- properties towards the 5-HT1A receptors (in words) (5-HT1A receptors [2]): antagonist properties

SMILES: CCCN(CCC)C1CCc2cccc(O)c2C1 (stereo not drawn) [Example 8-OH-DPAT, 8-hydroxy-2-(dipropylamino)tetraline]
- affinity for the 5-HT1A sites of the reference (in words) (5-HT1A receptors [3]): very great affinity
- selectivity for the 5-HT1A sites of the reference (in words) (5-HT1A receptors [3]): great selectivity
- induction of spontaneous movements of the tail (in words) (5-HT1A receptors [4]): marked spontaneous movements of the tail

SMILES: COc1ccccc1OCCNCC1CCN(c2nc3ccccc3o2)CC1.Cl.Cl [Example 44, 1-(BENZOXAZOL-2-YL)-4-[[2-(2-METHOXYPHENOXY)ETHYL]AMINOMETHYL]PIPERIDINE DIHYDROCHLORIDE]
- Ki (5-HT1A receptors [1]; rat hippocampus, [3H]-8-OH-DPAT, 30 minutes at 37° C., pKi by CheungPrusoff equation, read-out: pKi (converted)): 1000 pM
- ED50 (5-HT1A receptors [2]): 0.31 mg/kg
- properties towards the 5-HT1A receptors (in words) (5-HT1A receptors [2]): antagonist properties
